According to a melting point compilation (Tetko et al.):

details: a range is the spread between reports

Structure (SMILES) | melting point
Brc1ccc2c(c1)Cc1ccccc1-2 | 112 to 114 °C
COC(=O)c1ccccc1O | -9 to -7 °C
c1ccc(Nc2ccc(-c3ccc(Nc4ccccc4)cc3)cc2)cc1 | 247 to 248 °C
CC(=O)Nc1ccccc1C(=O)O | 184 to 186 °C
O=Cc1ccc(O)c(O)c1 | 153 to 155 °C
NS(=O)(=O)c1ccc(Cl)cc1 | 145 to 146 °C
c1ccc(-c2ccc(-c3ccccc3)cc2)cc1 | 210 to 214 °C
CC(C)C(=O)c1ccccc1 | -1.3 to 1 °C
OCc1ccccc1O | 85 to 87 °C
CCCCCCCCCC=O | -6 to -5 °C
O=C(Cl)c1cccc([N+](=O)[O-])c1 | 33 to 36 °C
N#Cc1c(F)c(F)c(F)c(C#N)c1F | 77 to 79 °C
c1ccc2c(c1)CCCC2 | -36 to -31 °C
C#CCC(C)C | -105 °C
CC(=O)c1ccc(Cl)cc1Cl | 33 to 34 °C
O=C(O)c1cccc(C(F)(F)F)c1 | 105 to 106 °C
CCOc1ccc(OCC)cc1 | 70 to 72 °C
CCCCOC(=O)c1ccc(N)cc1 | 57.5 to 58 °C
Clc1cc(Cl)nc(Cl)n1 | 22.5 to 23 °C
c1ccc(C(c2ccccc2)(c2ccccc2)c2ccccc2)cc1 | 282 to 283 °C
OC1c2ccccc2Oc2ccccc21 | 123 to 128 °C

Structure (SMILES) | melting point
Fc1c(F)c(F)c2c(F)c(F)c(F)c(F)c2c1F | 87 to 87.5 °C
O=[N+]([O-])c1ccc(F)cc1O | 33 to 36 °C
Clc1cccc(Cl)c1Br | 61 to 66 °C
C1CNCCNC1 | 41 to 43.5 °C
CC1CCC1 | -162 °C
CS(C)(=O)=O | 109 to 110 °C
CCO | -114 °C
O=C(Cl)c1ccc(Cl)cc1Cl | 16.5 to 18 °C
O=C(O)C(=O)c1ccccc1 | 65 to 66 °C
CC1OC(C)OC(C)O1 (centres undefined) | 12 to 12.6 °C
COc1ccc(C=O)cc1 | -1 to 1 °C
C=C | -169 °C
CCCCCCCN | -23 to -18 °C
c1ccc(Cn2ccnc2)cc1 | 69 to 71 °C
O=Cc1ccccc1 | -56.9 to -55.6 °C
CN(C)C(=O)Nc1ccccc1 | 132 to 134 °C
Cc1cc(C)c(Br)cc1C | 71 to 73 °C
CCCCCCCCCCCCCCCCCCC(=O)O | 69 to 69.4 °C
C=C(c1ccccc1)c1ccccc1 | 6 to 8.2 °C
Cc1ccco1 | -89 to -87.5 °C
NC(=O)c1ccc(F)cc1 | 156 °C

Structure (SMILES) | melting point
CCOc1ccc(C(C)(C)COCc2cccc(Oc3ccccc3)c2)cc1 | 36 to 37 °C
CC(=O)C(C)(C)C | -53 to -52 °C
NC(=O)c1ccccc1[N+](=O)[O-] | 176 to 177 °C
ClCc1ccccc1CCl | 55 to 56 °C
CN(C)c1ccc(C=Nc2ccccc2)cc1 | 96 to 100 °C
c1ccc(OP(Oc2ccccc2)Oc2ccccc2)cc1 | 23 to 25 °C
N#CCC(=O)c1ccccc1 | 80.5 to 83 °C
O=C(c1ccccc1)C(Cl)Cl | 20.5 to 21 °C
Nc1c(F)c(F)cc(F)c1F | 31 to 31.5 °C
OCc1c(Cl)cccc1Cl | 97 to 98 °C
O=[N+]([O-])c1ccc(Cl)cc1Cl | 30.5 to 34 °C
Cc1ccnc(C)c1 | -64 to -60 °C
CCc1ccc2ccccc2c1 | -7.45 to -7.35 °C
Cc1c(N)cccc1Cl | 1 to 2 °C
C1CCOCC1 | -49 to -45 °C
Brc1sc(Br)c(Br)c1Br | 115 to 118 °C
c1cc2ccc3ccc4ccc5ccc6ccc1c1c2c3c4c5c61 | 437 to 440 °C
CCc1cc(C)cc(C)c1 | -84.3 to -84 °C
Clc1ccc(Cl)c(I)c1 | 21 to 22 °C
c1ccc2c(c1)Cc1ccccc1-2 | 112 to 116 °C
O=C(O)c1cccc(Cl)c1[N+](=O)[O-] | 237 to 238 °C

Structure (SMILES) | melting point
Cc1ccc([N+](=O)[O-])c(F)c1 | 53 to 53.2 °C
OC(c1ccc(Cl)cc1)(c1ccc(Cl)cc1)C(Cl)(Cl)Cl | 77.5 to 78.5 °C
CN(C)C(=O)Nc1ccc(Cl)cc1 | 170 to 174 °C
NC(=O)c1cccc2ccccc12 | 206 to 208 °C
C=C1C2CCC(C2)C1(C)C (centres undefined) | 50 to 52 °C
Cc1ccc(S(=O)(=O)c2ccc(C)cc2)cc1 | 157 to 159 °C
C=CC(C)(C)C | -115 °C
C=C[Si]1(C)O[Si](C)(C=C)O[Si](C)(C=C)O[Si](C)(C=C)O1 (centres undefined) | -43.5 to -43 °C
NS(=O)(=O)c1cc(C(=O)O)ccc1Cl | 257 to 258 °C
OCC1OC(OC2(CO)OC(CO)C(O)C2O)C(O)C(O)C1O (centres undefined) | 186 to 188 °C
CCOC(=O)c1c[nH]nc1N | 103 to 106 °C
Ic1ccccc1 | -31.3 to -31 °C
Brc1ccc(Oc2ccccc2)cc1 | 18 to 18.7 °C
CCCCOC | -116 to -115 °C
C=CCc1ccccc1OCC(O)CNC(C)C (centres undefined) | 108 to 109 °C
CCCCCCCCCCCCCCCCCO | 53.8 to 58 °C
c1ccc(N=C(Nc2ccccc2)Nc2ccccc2)cc1 | 144 to 146 °C
O=Cc1ccc(O)cc1O | 135 to 136 °C
COP(N)(=O)SC (centres undefined) | 45 to 46 °C
O=S(=O)(Cl)c1cccs1 | 28 to 30 °C
ClC(Cl)=C(Cl)C(Cl)(Cl)Cl | -73 to -72.9 °C
